Values quoted from earlier work in patent US8097267B2, “Moisture resistant container systems for rapidly bioavailable dosage forms” (APR Applied Pharma Research s.a., priority 2006, dated 2012).

Details: acidic environment

For “[(2,6-dichloro-anilino)-2-phenyl]-2-acetic acid [diclofenac potassium]”, the precipitation is listed as “tendency to precipitate in an acidic environment”.
